In US9434763B2, “Derivatives of pyridinone as inhibitors for tissue transglutaminase” (ZEDIRA GMBH, priority 2012, dated 2016):

Legend:
Type in all cases: biochemical
[1] = biological target: T1, His tagged recombinant human tissue transglutaminase (His6-rh-TG2) (Homo sapiens, UniProt P21980); test: Inactivation of human tissue transglutaminase, fluorescence assay with Abz-APE(CAD-DNP)QEA-OH; details: substrate Abz-APE(CAD-DNP)QEA-OH, 37° C., pH=7.5
T1 construct: purchased Zedira T002
T1 sequence (P21980 1-687): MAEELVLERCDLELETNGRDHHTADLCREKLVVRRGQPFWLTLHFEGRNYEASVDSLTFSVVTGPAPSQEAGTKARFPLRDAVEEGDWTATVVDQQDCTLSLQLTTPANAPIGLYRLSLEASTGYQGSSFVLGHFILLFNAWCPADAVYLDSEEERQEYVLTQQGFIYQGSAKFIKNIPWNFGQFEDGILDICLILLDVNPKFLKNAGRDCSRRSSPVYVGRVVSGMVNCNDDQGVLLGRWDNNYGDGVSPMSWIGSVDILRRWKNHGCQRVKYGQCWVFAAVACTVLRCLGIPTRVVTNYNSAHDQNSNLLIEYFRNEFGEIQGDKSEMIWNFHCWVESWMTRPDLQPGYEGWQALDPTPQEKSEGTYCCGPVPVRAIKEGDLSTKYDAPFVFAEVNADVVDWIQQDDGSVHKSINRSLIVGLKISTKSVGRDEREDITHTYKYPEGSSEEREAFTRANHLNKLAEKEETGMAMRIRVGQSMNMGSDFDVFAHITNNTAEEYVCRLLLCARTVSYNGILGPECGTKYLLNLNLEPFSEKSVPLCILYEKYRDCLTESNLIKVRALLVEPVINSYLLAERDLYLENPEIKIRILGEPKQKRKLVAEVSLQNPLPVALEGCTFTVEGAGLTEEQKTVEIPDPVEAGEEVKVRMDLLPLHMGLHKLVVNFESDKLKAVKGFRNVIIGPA
In short: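 His6-rh-TG2 (10 μg per assay) was preincubated 5 min at 37 °C with inhibitor in Tris/CaCl2/PEG8000/DTT/glycine methyl ester assay solution (50 μM Abz-APE(CAD-DNP)QEA-OH), pH 7.5, DMSO <0.2%. Fluorescence (ex 313/em 418 nm) read over 15–30 min and activity taken from the slope. IC50 from activity vs log inhibitor concentration.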

[2] = biological target: T2, tissue transglutaminase (TG2) (Homo sapiens, UniProt P21980); test: Comparative transglutaminase selectivity assay with casein and dansylcadaverine as substrates (kit T036): TG2; details: casein as substrate (apparent IC50)
T2 construct: purchased Zedira T036 (kit)
T2 sequence (P21980 1-687): T1 sequence (P21980 1-687)
Excerpt: (§1) The comparative determination of different transglutaminases to determine the selectivity was made with casein and dansylcadaverine as substrates. Therefore, the kit T036 (Zedira, Darmstadt; Refs: Lorand et al, Anal Biochem, 1971, 44:221-31) as well as transglutaminase products T009 (transglutaminase 1), T012 (transglutaminase 3), T021 (transglutaminase 6) and T027 (plasma transglutaminase, factor XIII) are used. Therefore, two different IC50 values for the compounds are given.
(§2) The evaluation of the resulting enzyme activity is done using the slope of the straight line obtained by the increase in fluorescence.
(§3) To determine the non-inhibited enzyme activity, DMSO instead of inhibitor stock solution is used. IC50 values are determined by plotting the resulting enzyme activity against the logarithm of the inhibitor concentration. IC50 is defined as the concentration of inhibitor resulting in 50% of enzyme activity.
(§4) It should be noted that it was measured here against casein as substrate, which is why other apparent inhibition values (IC50 value) result.

TG6 (transglutaminase 6) = biological target: T3, TG6 (transglutaminase 6) (Homo sapiens, UniProt O95932); test: Comparative transglutaminase selectivity assay with casein and dansylcadaverine as substrates: TG6; details: casein as substrate
T3 construct: purchased Zedira T021
T3 sequence (O95932 1-706): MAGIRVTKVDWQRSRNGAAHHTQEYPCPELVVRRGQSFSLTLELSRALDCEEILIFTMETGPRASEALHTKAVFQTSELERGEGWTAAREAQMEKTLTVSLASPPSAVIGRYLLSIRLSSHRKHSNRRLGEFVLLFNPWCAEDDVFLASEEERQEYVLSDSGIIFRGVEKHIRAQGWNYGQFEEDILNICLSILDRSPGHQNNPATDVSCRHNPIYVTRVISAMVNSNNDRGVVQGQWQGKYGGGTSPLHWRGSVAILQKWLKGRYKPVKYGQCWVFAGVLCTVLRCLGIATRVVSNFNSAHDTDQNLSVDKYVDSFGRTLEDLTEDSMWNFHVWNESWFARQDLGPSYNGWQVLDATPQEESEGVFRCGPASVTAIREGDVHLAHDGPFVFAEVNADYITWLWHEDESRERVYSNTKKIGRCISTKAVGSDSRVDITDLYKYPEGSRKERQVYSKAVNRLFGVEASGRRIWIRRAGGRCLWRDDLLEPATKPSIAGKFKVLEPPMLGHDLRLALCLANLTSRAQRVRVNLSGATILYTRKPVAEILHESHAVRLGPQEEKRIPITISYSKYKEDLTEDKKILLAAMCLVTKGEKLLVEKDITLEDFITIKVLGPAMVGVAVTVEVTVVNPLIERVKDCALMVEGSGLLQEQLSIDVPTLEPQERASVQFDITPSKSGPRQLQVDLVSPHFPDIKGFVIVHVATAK
Excerpt: as §1, §2, §3, §4

Structure (SMILES)	IC50 [1] [µM]	IC50 [2] [µM]	IC50 (TG6 (transglutaminase 6)) [µM]
COC(=O)/C=C/CC[C@H](NC(C)=O)C(=O)Nc1cccn(CC(=O)N2CCC(C(F)(F)F)CC2)c1=O [A65, (S,E)-Methyl 6-acetamido-7-oxo-7-(2-oxo-1-(2-oxo-2-(4-(trifluoromethyl)piperidin-1-yl)ethyl)-1,2-dihydropyridin-3-ylamino)hept-2-enoate]	0.132	2.9	37.7
CCOC(=O)/C=C/CC[C@H](NC(=O)c1cncn1C)C(=O)Nc1cccn(CC(=O)NCCC(C)C)c1=O [A19, (S,E)-Ethyl 7-(1-(2-(isopentylamino)-2-oxoethyl)-2-oxo-1,2-dihydropyridin-3-ylamino)-6-(1-methyl-1H-imidazole-5-carboxamido)-7-oxohept-2-enoate]	0.08	2.39	54.3
CCOC(=O)/C=C/CC[C@H](NC(=O)c1ccccc1)C(=O)Nc1cccn(CC(=O)N[C@H](C(=O)O)[C@H](C)CC)c1=O [A59, (2S,3R)-2-(2-(3-((S,E)-2-Benzamido-7-ethoxy-7-oxohept-5-enamido)-2-oxopyridin-1(2H)-yl)acetamido)-3-methylpentanoic acid]	0.043	0.461	9.3
CC[C@@H](C)[C@H](NC(=O)Cn1cccc(NC(=O)[C@H](CC/C=C/C(=O)OC)NC(=O)c2ccccc2)c1=O)C(=O)O [A61, (2S,3R)-2-(2-(3-((S,E)-2-benzamido-7-methoxy-7-oxohept-5-enamido)-2-oxopyridin-1(2H)-yl)acetamido)-3-methylpentanoic acid]		0.079	4.3
CCOC(=O)/C=C/CC[C@H](NC(C)=O)C(=O)Nc1cccn(CC(=O)NCCC(CC)CC)c1=O [A42, (S,E)-ethyl 6-acetamido-7-(1-(2-(3-ethylpentylamino)-2-oxoethyl)-2-oxo-1,2-dihydropyridin-3-ylamino)-7-oxohept-2-enoate]	0.147	7.1	36.7
CCC(CC)CNC(=O)Cn1cccc(NC(=O)[C@H](CC/C=C/C(=O)OC)NC(=O)c2cncn2C)c1=O [A63, (S,E)-Methyl 7-(1-(2-(2-ethylbutylamino)-2-oxoethyl)-2-oxo-1,2-dihydropyridin-3-ylamino)-6-(1-methyl-1H-imidazole-5-carboxamido)-7-oxohept-2-enoate]	0.045	0.218	31.5
CCOC(=O)/C=C/CC[C@H](NC(=O)c1cncn1C)C(=O)Nc1cccn(CC(=O)NCC(CC)CC)c1=O [A58, (S,E)-Ethyl 7-(1-(2-(2-ethylbutylamino)-2-oxoethyl)-2-oxo-1,2-dihydropyridin-3-ylamino)-6-(1-methyl-1H-imidazole-5-carboxamido)-7-oxohept-2-enoate]		1.54	66
COC(=O)/C=C/CC[C@H](NC(C)=O)C(=O)Nc1cccn(CC(=O)NCCC(C)C)c1=O [A29, (S,E)-methyl 6-acetamido-7-(1-(2-(isopentylamino)-2-oxoethyl)-2-oxo-1,2-dihydropyridin-3-ylamino)-7-oxohept-2-enoate]		0.4	83.3
CC[C@@H](C)[C@H](NC(=O)Cn1cccc(NC(=O)[C@H](CC/C=C/C(=O)OC)NC(=O)c2cncn2C)c1=O)C(=O)O [A60, (2S,3R)-2-(2-(3-((S,E)-7-Methoxy-2-(1-methyl-1H-imidazole-5-carboxamido)-7-oxohept-5-enamido)-2-oxopyridin-1(2H)-yl)acetamido)-3-methylpentanoic acid]	0.054	0.112	11.5
CCOC(=O)/C=C/CC[C@H](NC(C)=O)C(=O)Nc1cccn(CC(=O)NCCC(C)C)c1=O [A7, (S,E)-Ethyl 6-acetamido-7-(1-(2-(isopentylamino)-2-oxoethyl)-2-oxo-1,2-dihydropyridin-3-ylamino)-7-oxohept-2-enoate]		3.6	51
CCOC(=O)/C=C/CC[C@H](NC(C)=O)C(=O)Nc1cccn(CC(=O)NCC(CC)CC)c1=O [A62, (S,E)-Ethyl 6-acetamido-7-(1-(2-(2-ethylbutylamino)-2-oxoethyl)-2-oxo-1,2-dihydropyridin-3-ylamino)-7-oxohept-2-enoate]	0.093	1.96	47
COC(=O)/C=C/CC[C@H](NC(C)=O)C(=O)Nc1cccn(CC(=O)N2CCCC(C)C2)c1=O (stereo partly drawn) [A64, (6S,E)-Methyl 6-acetamido-7-(1-(2-(3-methylpipendin-1-yl)-2-oxoethyl)-2-oxo-1,2-dihydropyridin-3-ylamino)-7-oxohept-2-enoate]	0.141	3	109
CCC(CC)CNC(=O)Cn1cccc(NC(=O)[C@H](CC/C=C/C(=O)OC)NC(C)=O)c1=O [A79, (S,E)-Methyl 6-acetamido-7-(1-(2-(2-ethylbutylamino)-2-oxoethyl)-2-oxo-1,2-dihydropyridin-3-ylamino)-7-oxohept-2-enoate]	0.034	0.397	47.8
CCOC(=O)/C=C/CC[C@H](NC(=O)c1cncn1C)C(=O)Nc1cccn(CC(=O)N[C@H](C(=O)O)[C@H](C)CC)c1=O [A53, (2S,3R)-2-(2-(3-((S,E)-7-Ethoxy-2-(1-methyl-1H-imidazole-5-carboxamido)-7-oxohept-5-enamido)-2-oxopyridin-1(2H)-yl)acetamido)-3-methylpentanoic acid]	0.06	0.833	26.2
CCOC(=O)/C=C/CC[C@H](NC(=O)CCC(=O)O)C(=O)Nc1cccn(CC(=O)NCCC(C)C)c1=O [A24, (S,E)-4-(7-Ethoxy-1-(1-(2-(isopentylamino)-2-oxoethyl)-2-oxo-1,2-dihydropyridin-3-ylamino)-1,7-dioxohept-5-en-2-ylamino)-4-oxobutanoic acid]	0.173	7.5	38.5
CCOC(=O)/C=C/CC[C@H](NC(C)=O)C(=O)Nc1cccn(CC(=O)N[C@H](C(=O)OC)[C@H](C)CC)c1=O [A35, (S,E)-ethyl 6-acetamido-7-(1-(2-((2S,3R)-1-methoxy-3-methyl-1-oxopentan-2-ylamino)-2-oxoethyl)-2-oxo-1,2-dihydropyridin-3-ylamino)-7-oxohept-2-enoate]	0.055	1	21.3
CCOC(=O)/C=C/CC[C@H](NC(=O)CCC(=O)O)C(=O)Nc1cccn(CC(=O)NCC(CC)CC)c1=O [A30, (S,E)-4-(7-Ethoxy-1-(1-(2-(2-ethylbutylamino)-2-oxoethyl)-2-oxo-1,2-dihydropyridin-3-ylamino)-1,7-dioxohept-5-en-2-ylamino)-4-oxobutanoic acid]	0.116	3.26	32.8
